# Entries after “also recorded” stand apart in the source; their conditions may differ.
# Legend:
# [1] = free form; cited from earlier work
# [2] = cited from earlier work
# fungal infections = conditions: cited from earlier work
# [3] = Experimental: The MLVs which formed were diluted, concentrated by ultrafiltration, and extruded successively through 0.4 and 0.2 micron polycarbonate membranes, as in Example II.
# Liposomes were prepared from mixture #1 lipids and 3.5 mole percent AMB, with hydration in either PBS, or in a Tris--HCl buffer containing 5% w/v of one of the following sugars: glucose, mannitol, trehalose, sucrose, lactose, or maltodextrin. The MLVs formed on hydration with the selected aqueous medium were extruded successively through 0.4 and 0.2 micron polycarbonate membranes, diluted with the selected medium, and concentrated to the original volume, according to Example I. The liposome suspensions were frozen against a dry ice/isopropanol mixture and lyophilized at a pressure of about 15 mTorr. The lyophilized material was stored under nitrogen at refrigerator temperature until used, typically at least about 12 hours.
# Following storage, each of the lyophilized liposome preparations was resuspended to its prelyophilization volume by addition of distilled water. The samples were agitated briefly to facilitate resuspension, and resuspended samples were examined for liposome size distribution, as above.
structure (smiles),measurement,setting,value
"C[C@@H]1[C@H](O)[C@@H](C)/C=C/C=C/C=C/C=C/C=C/C=C/C=C/[C@H](O[C@@H]2O[C@H](C)[C@@H](O)[C@H](N)[C@@H]2O)C[C@@H]2O[C@](O)(C[C@@H](O)C[C@@H](O)[C@H](O)CC[C@@H](O)C[C@@H](O)CC(=O)O[C@H]1C)C[C@H](O)[C@H]2C(=O)O [AMB, Amphotericin B]",side effects of free AMB,[1],"side effects resulting from red blood cell disruption are observed initially, followed by more serious cardiotoxicity effects; also recorded: Renal toxicity"
same,LD50,[2]; earlier studies (references 2-12),2 to 3 mg/kg
same,"antifungal activity, in words",fungal infections,effective antifungal agent
CC(C)[C@@H](C)/C=C/[C@@H](C)[C@H]1CC[C@H]2C3=CC=C4C[C@@H](O)CC[C@]4(C)[C@H]3CC[C@]12C [Ergosterol],protective effect in liposomes,[2]; compared with cholesterol (reference 12),greater protective effect than cholesterol in liposomes
O=C[C@H](O)[C@@H](O)[C@H](O)[C@H](O)CO [glucose],size stabilization on dehydration and rehydration,[3],good size stabilization
OC[C@H]1O[C@@](CO)(O[C@H]2O[C@H](CO)[C@@H](O)[C@H](O)[C@H]2O)[C@@H](O)[C@@H]1O [sucrose],size stabilization on dehydration and rehydration,[3],good size stabilization
